Values joined by “and” are separate entries in the source; they are usually repeats but may differ in a detail not shown here. Identical values can stand only once.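 Dose response: 5 concentrations. Exposure: 48 h. Format: 96-well plates. Endpoint: linear interpolation; highest concentration if not reached. The concentration for 50% growth inhibition is given as GI50. TGI marks complete inhibition of growth.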

This experiment has as its system MDA-MB-468 breast. Description: NCI anticancer screen, dose series, 48 h.
Turning to `O=C1c2ccccc2C(=Cc2ccccc2)c2ccccc21`, the GI50 is 0.565 µM and the TGI is 10.7 µM.
Take `O=C(CF)N(O)c1ccc(/C=C/c2ccccc2)cc1`: the GI50 is 0.0642 µM and the TGI worked out at 0.354 µM.
As for `Cc1cnc(/C=N\NC(N)=S)c2cccc(N)c12`, the GI50 is 0.206 µM and the TGI worked out at 0.504 µM.
With `CNC(=O)c1ccc2cc(C3(O)CCn4cncc43)ccc2c1` (configuration not stated), the GI50 is over 100 µM and the TGI was over 100 µM.
Regarding `Cc1cc(C2=NNC(=O)Cc3cc4c(cc32)OCCO4)cc(C)c1N`, the GI50 was 0.523 µM and the TGI was 7.24 µM.
In the case of `Cc1noc(C)c1-c1cc(O)cc(C(O)c2ccccc2)c1` (configuration not stated), the GI50 was 1.89 µM and the TGI stood at 40.6 µM.
The like results for `O=C(Nc1ccc(Oc2ccc3nc(NC(=O)c4ccccc4)[nH]c3c2)cc1)Nc1cc(C(F)(F)F)ccc1F` were, in that order, 0.625 µM and 5.45 µM.
On to `COc1cnc2c(c1)C(=O)c1c-2n(CCCN2CCC(O)CC2)c(=O)c2cc(F)ccc12`, for which the GI50 is 0.152 µM and the TGI is 0.438 µM.
`CN1CCN(c2ccc3nc(-c4c(N)c5c(F)cccc5[nH]c4=O)[nH]c3c2)CC1`: the GI50 was 1.46 µM and 0.953 µM and 2.3 µM; the TGI is 3.58 µM and > 2.3 µM and 7.03 µM.
`CC[C@H](Nc1nc(N)nc(C)c1C#N)c1nc2cccc(NCc3ccc(C(=O)NO)cc3)c2c(=O)n1-c1ccccc1`: the GI50 is 1.27 µM and the TGI stood at 4.42 µM.
The like results for `C#C[C@]1(O)CC[C@H]2[C@@H]3CC=C4c5sc(Nc6cccc(C)n6)nc5CC[C@]4(C)[C@H]3CC[C@@]21C` were, in that order, 2.04 µM and 5.68 µM.
For the compound `CC(=O)O[C@H](C[C@H](C(C)C)N(C)C(=O)[C@@H](NC(=O)[C@H]1CCCCN1C)C(C)C)c1nc(C(=O)N[C@@H](Cc2ccccc2)C[C@H](C)C(=O)O)c(C(C)C)s1`, the GI50 was under 0.00333 µM and the TGI came to 0.194 µM.
Regarding `O=C(CN1CCN(c2ccc(Cl)cc2)CC1)N1CCN(c2nnc(-c3ccc(Cl)cc3)c(-c3ccc(Cl)cc3)n2)CC1`, the GI50 was 18.8 µM and the TGI was determined as 65.2 µM.
For the compound `CN1CCN(Cc2ccc(NC(=O)c3cncc(C#Cc4cncc5ncccc45)c3)cc2C(F)(F)F)CC1`, the GI50 is 8.72 µM and the TGI worked out at 21.8 µM.
In the case of `CCN1C(=O)NC(=O)C(C)(N2C(=O)c3c(F)c(F)c(F)c(F)c3C2=O)C1=O` (configuration not stated), the GI50 is 1.75 µM and the TGI was 5.68 µM.
Taken in the same sequence, the figures for `CCCC[N+](CCCC)=c1ccc2nc3c(C)cc(N(CC)CC)cc3sc-2c1` were 0.0391 µM and 0.351 µM.
Turning to `Cn1cc(C2=C(c3cccnc3)C(=O)NC2=O)c2ccccc21`, the GI50 was over 20.1 µM and the TGI is over 25 µM.
`COc1cc2nccc(Oc3ccc(NC(=O)C4(C(=O)Nc5ccc(F)cc5)CC4)cc3)c2cc1Oc1ccc(N)cn1`: the GI50 is 2.45 µM and the TGI stood at 8.82 µM.
On to `CN(C)c1ncnc2c1nnn2C1OC(CO)C(O)C1O` (configuration not stated), for which the GI50 was 0.0736 µM and the TGI was 1.16 µM.
The like results for `CN(C)CCOc1ccc(/C(=C(/CCCl)c2ccccc2)c2ccccc2)cc1` were, in that order, 0.682 µM and 1.52 µM.
As for `O=[N+]([O-])c1ccc2c(N3CCC(CCCC4CCN(c5ncnc6cc([N+](=O)[O-])ccc56)CC4)CC3)ncnc2c1`, the GI50 is 0.0316 µM and the TGI was over 100 µM.
Taken in the same sequence, the figures for `C=CC[P+](c1ccccc1)(c1ccccc1)c1ccccc1` were 0.609 µM and 9.13 µM.
The like results for `CC1CCN(CCCCCOc2ccc3oc4cc(Cl)ccc4c(=O)c3c2)CC1` were, in that order, 6.13 µM and 13.6 µM.
The like results for `Oc1c(CN2CCCC2)cc(COCc2ccc(Br)cc2)c2cccnc12` were, in that order, 0.602 µM and 2.14 µM.
Regarding `CC(=O)OCC(=O)O[C@@H]1C[C@]2(C(C)C)O[C@@]1(C)[C@@H]1CC[C@@H](C)[C@H]1[C@@H]2OC(=O)/C=C/c1ccccc1`, the GI50 was 13.5 µM and the TGI turned out to be 55.6 µM.
As for `O=C(Nc1ccc(Cl)cc1F)c1cc(I)ccc1O`, the GI50 was 2.1 µM and the TGI was 5.45 µM.
On to `CC/C=C\C/C=C\C[C@H](O)C/C=C1/C(=O)C=C[C@@H]1C/C=C\CCCC(=O)O`, for which the GI50 is 2.32 µM and the TGI worked out at 6.71 µM.
Taken in the same sequence, the figures for `O=C(CCCN1CCOCC1)Nc1ccc(Cn2nnc3c2C(=O)c2nnn(Cc4ccc(NC(=O)CCCN5CCOCC5)cc4)c2C3=O)cc1` were 0.304 µM and 0.817 µM.
For the compound `C[C@@H]1CC[C@@H]2[C@@H]1[C@H](OC(=O)/C=C/c1ccccc1)[C@]1(C3CCCCC3)C[C@@H](NC(=O)CO)[C@@]2(C)O1`, the GI50 is 17.1 µM and the TGI came to 33.5 µM.
On to `O=C(Nc1cccc(Oc2nnc(Cl)c3ccccc23)c1)Nc1ccc(Cl)c(C(F)(F)F)c1`, for which the GI50 was 0.689 µM and the TGI was determined as 3.43 µM.
The like results for `O=c1c2ccccc2n2n1CC(O)C2` (configuration not stated) were, in that order, over 100 µM and over 100 µM.
Turning to `CC(C)(C)c1[nH]cnc1/C=c1\[nH]c(=O)/c(=C/c2ccccc2)[nH]c1=O`, the GI50 is 0.0226 µM and the TGI is 28.6 µM.
The like results for `COc1ccc(C2=NN(C(=O)c3cc(OC)c(OC)c(OC)c3)C(c3ccc(Cl)cc3)C2)cc1OC` (configuration not stated) were, in that order, 0.585 µM and over 100 µM.
`CC1=C2C(=C[C@@](C)(C=O)[C@@H]2O)C(=O)[C@](C)(O)C12CC2`: the GI50 was 0.233 µM and the TGI worked out at 0.764 µM.
Take `COC(=O)[C@]12CC[C@@H](C)[C@H](C)[C@@H]1C1=CC[C@@H]3[C@@]4(C)C(C=O)=C[C@@](C)(COC(=O)c5ccco5)[C@@H]4C(=O)C[C@@]3(C)[C@]1(C)CC2`: the GI50 was 0.277 µM.
In the case of `COc1ccc(-c2nn(-c3cccc(NC(=O)c4ccc5c(c4)OCCO5)c3)cc2-c2ccncc2)cc1Cl`, the GI50 is 1.63 µM and the TGI worked out at 6.48 µM.
The like results for `CC(C)(C#N)c1cc(F)cc(C(=O)Nc2cc(Nc3ncccc3-c3ncnc4nc[nH]c34)ccc2F)c1` were, in that order, over 10 µM and over 10 µM.
Taken in the same sequence, the figures for `CN(C)c1ccc(/C=C(\C#N)c2nc3ccccc3n2C)cc1` were 1.76 µM and over 100 µM.
The like results for `N#Cc1ccc(N2Cc3ccccc3OC3=C2C(=O)c2c(O)ccc(O)c2C3=O)cc1` were, in that order, 0.132 µM and 0.366 µM.
